According to PubChem BioAssay AID1204 (EPA DSSTox, 2008):
Results filed as inconclusive are left out. The source made the active and inactive calls.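 Rule for the calls: active = relative estrogen receptor binding affinity above 1E-5, where estradiol scores 100; inconclusive = weak binder, under half inhibition at top dose, or affinity below 1E-5; inactive = no binding seen, affinity zero.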

Tested on: estrogen receptor (rat uterine cytosol)
Test: DSSTox (NCTRER) National Center for Toxicological Research Estrogen Receptor Binding Database;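 for relative binding affinity: ratio of estradiol IC50 over compound IC50 times 100 so estradiol equals 100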
Conditions: rat uterine cytosol ER competitive binding, RBA; ChemClass_ERB: Biphenyls PCBs; stronger effect = higher value
Description: Researchers within FDA's National Center for Toxicological Research (NCTR) generated a database of experimental estrogen receptor binding results for the express purpose of developing improved QSAR models to predict ER binding affinities.The NCTR ER database is a structurally diverse set of natural, synthetic, and environmental estrogens covering most known estrogenic classes and spanning a wide range of biological activity. It represents the largest published ER binding database of same-assay results generated in a single laboratory. […] Information on the percent purity and purchasing source for all chemicals are not included in the DSSTox SDF, but can be obtained from the original NCTR ER Source database and Main Citations listed below. The main citation (Fang et al., 2001) surveys the NCTR ER database from a chemical class based, structure-activity relationship (SAR) perspective. Qualitative SAR characteristics of the NCTR ER database are discussed and a set of general hierarchical rules for identifying potential estrogens are presented. The DSSTox NCTRER SDF augments the original NCTR ER database with chemical class and SAR information abstracted from Fang et al. (2001). The DSSTox SDF file supplements the measured ER relative binding affinity for each chemical (ER_RBA) with chemical class assignment to one of 6 major estrogenic classes further divided into 20 subclasses (ChemClass_ERB), along with a qualitative activity measure, ActivityCategory_ER_RBA. A brief narrative SAR rationale pertaining to ER RBA patterns observed by Fang et al. (2001) for each of the 20 subclasses within the database are provided in the field, ActivityCategory_Rationale_ChemClass_ERB. The original NCTR ER database, from which the expanded DSSTox NCTRER was formed, is contained within a larger Endocrine Disruptor Knowledge Base (EDKB) accessible from the FDA Source Website. That website provides online access to a relational database comprised of in vitro and in vivo experimental data for about 2000 natural and synthetic compounds, much of this extracted from the literature and representing testing in many laboratories. Data are included for biological assays that measure estrogenic and androgenic activity. Estrogenic endpoints include in vitro assays for estrogen receptor competitive binding affinity, cell proliferation, and reporter-gene assays, and in vivo assays for uterotrophic activity (i.e., uterine weight gain and vaginal cornification). The database also contains a bibliography of over 1200 citations, many of which include abstracts.
Estrogen receptor relative binding affinity is determined using a competitive receptor binding assay as described in NCTRER Ref (Blair et al., 2000). Briefly, a chemical competes with radiolabeled E2 (i.e., estradiol) for binding to the ER in rat uterine cytosol and the concentration of chemical that causes 50% inhibition of E2 binding (i.e., IC50) is measured. The ER_RBA is calculated by dividing the IC50 of E2 (9X10-10M) by the IC50 of the competitor and multiplying by 100 (E2 RBA = 100). The validated assay tested 1nM E2 with concentrations of competitor ranging from 1nM to 1mM. The larger the ER_RBA values, the greater the binding affinity; ER_RBA > 100 means compound has greater binding affinity than natural ER ligand, E2. […] Activity Score is mapping of LOG_ER_RBA values (ER-RBA>1E-5), spanning activity range [MIN, MAX] onto Integer 20-100 Activity range, where 100 is highest potency and 20 is lowest active potency. If Activity Outcome is "active": Activity Score = 80 * INTEGER[(LOG_ER_RBA - MIN)/(MAX […] MIN)]. If Activity Outcome is "inconclusive" (i.e., slight binder): Activity Score = 5.

Row | Structure (SMILES) | relative binding affinity [%]
1 | Oc1ccc(-c2ccccc2)c(Cl)c1 | 0.00169
2 | Oc1ccc(-c2cc(Cl)ccc2Cl)cc1 | 0.0363
3 | Oc1c(Cl)cc(-c2cc(Cl)c(O)c(Cl)c2)cc1Cl | 0.00056

Same assay, conditions: rat uterine cytosol ER competitive binding, RBA; ChemClass_ERB: DES Derivatives; stronger effect = higher value

Row | Structure (SMILES) | relative binding affinity [%]
4 | CC/C(=C(/CC)c1ccc(OC)cc1)c1ccc(O)cc1 | 20.4

Same assay, conditions: rat uterine cytosol ER competitive binding, RBA; ChemClass_ERB: DES Hexestrol derivatives; stronger effect = higher value

Row | Structure (SMILES) | relative binding affinity [%]
5 | Oc1ccc(CCc2ccc(O)cc2)cc1 | 0.0363
6 | CCC(c1ccc(C)cc1)C(CC)c1ccc(O)cc1 (centres undefined) | 3.98
7 | CCC(c1ccc(O)cc1)C(CC)c1cc(C)c(O)c(C)c1 (centres undefined) | 8.91
8 | CC[C@H](c1ccc(O)cc1)[C@@H](CC)c1ccc(O)cc1 | 301

Same assay, conditions: rat uterine cytosol ER competitive binding, RBA; ChemClass_ERB: DES Triphenylethylenes; stronger effect = higher value

Row | Structure (SMILES) | relative binding affinity [%]
9 | CC/C(=C(\c1ccccc1)c1ccc(OCCN(C)C)cc1)c1ccc(O)cc1 | 174

Same assay, conditions: rat uterine cytosol ER competitive binding, RBA; ChemClass_ERB: Diphenylmethanes Benzophenones; stronger effect = higher value

Row | Structure (SMILES) | relative binding affinity [%]
10 | O=C(c1ccccc1)c1ccc(O)cc1O | 0.00245
11 | O=S(=O)(c1ccc(O)cc1)c1ccc(O)cc1 | 0.00085

Same assay, conditions: rat uterine cytosol ER competitive binding, RBA; ChemClass_ERB: Diphenylmethanes DDTs

Row | Structure (SMILES) | outcome
12 | ClC(Cl)=C(c1ccc(Cl)cc1)c1ccc(Cl)cc1 | inactive

Same assay, conditions: rat uterine cytosol ER competitive binding, RBA; ChemClass_ERB: Diphenylmethanes DDTs; stronger effect = higher value

Row | Structure (SMILES) | relative binding affinity [%]
13 | Oc1ccc(C(=C(Cl)Cl)c2ccc(O)cc2)cc1 | 2.63

Same assay, conditions: rat uterine cytosol ER competitive binding, RBA; ChemClass_ERB: Diphenylmethanes Diphenolalkanes; stronger effect = higher value

Row | Structure (SMILES) | relative binding affinity [%]
14 | CCC(C)(c1ccc(O)cc1)c1ccc(O)cc1 | 0.0851
15 | O=C1C=CC(=C(c2ccc(O)cc2)c2ccc(O)cc2)C=C1 | 0.0316
16 | CC(CCC(=O)O)(c1ccc(O)cc1)c1ccc(O)cc1 | 0.00074
17 | CC(C)(c1ccc(O)cc1)c1ccc(O)cc1 | 0.0078
18 | Oc1ccc(Cl)cc1Cc1cc(Cl)ccc1O | 0.0035

Same assay, conditions: rat uterine cytosol ER competitive binding, RBA; ChemClass_ERB: Misc

Row | Structure (SMILES) | outcome
19 | COc1nc(NC(C)C)nc(NC(C)C)n1 | inactive
20 | Clc1c(Cl)c(Cl)c(Cl)c(Cl)c1Cl | inactive
21 | CCc1cccc(C)c1N(C(=O)CCl)C(C)COC (centres undefined) | inactive
22 | Cc1ccc2c(C)cccc2c1 | inactive
23 | O=C(O)COc1cc(Cl)c(Cl)cc1Cl | inactive
24 | OCc1ccccc1 | inactive
25 | Nc1ccc(Oc2ccc(N)cc2)cc1 | inactive
26 | CNC(=O)Oc1cccc2c1OC(C)(C)C2 | inactive
27 | O=S(=O)(O)c1ccc2c(N=Nc3ccc(S(=O)(=O)O)c4ccccc34)c(O)c(S(=O)(=O)O)cc2c1 | inactive
28 | CC12CCC(CC1)C(C)(C)O2 | inactive
29 | CCCCC(CC)COC(=O)CCCCC(=O)OCC(CC)CCCC (centres undefined) | inactive
30 | CCOC(=O)c1ccccc1C(=O)OCC | inactive
31 | CC(C)CCCCCCOC(=O)c1ccccc1C(=O)OCCCCCCC(C)C | inactive
32 | Nc1ccc(/C=C/c2ccc(N)cc2)cc1 | inactive
33 | Cn1c(=O)c2c(ncn2C)n(C)c1=O | inactive
34 | CCCCCCO | inactive
35 | ClC1=C(Cl)C2(Cl)C3C(Cl)C=CC3C1(Cl)C2(Cl)Cl (centres undefined) | inactive
36 | ClC1=C(Cl)[C@]2(Cl)[C@@H]3[C@H]4C=CC(C4)[C@@H]3C1(Cl)C2(Cl)Cl | inactive
37 | ClC1=C(Cl)[C@@]2(Cl)[C@@H]3[C@@H](Cl)[C@H](Cl)C[C@@H]3C1(Cl)C2(Cl)Cl | inactive
38 | O=C(O)COc1ccc(Cl)cc1Cl | inactive

Same assay, conditions: rat uterine cytosol ER competitive binding, RBA; ChemClass_ERB: Misc; stronger effect = higher value

Row | Structure (SMILES) | relative binding affinity [%]
39 | C[C@H](Cc1ccc(O)c(O)c1)[C@H](C)Cc1ccc(O)c(O)c1 | 0.0309
40 | CC[C@@H]1c2ccc3cc(OC)ccc3c2CC[C@]1(C)C(=O)O | 0.00181

Same assay, conditions: rat uterine cytosol ER competitive binding, RBA; ChemClass_ERB: Phenols Alkyl

Row | Structure (SMILES) | outcome
41 | Oc1ccccc1 | inactive

Same assay, conditions: rat uterine cytosol ER competitive binding, RBA; ChemClass_ERB: Phenols Alkyl; stronger effect = higher value

Row | Structure (SMILES) | relative binding affinity [%]
42 | CCc1cccc(O)c1 | 0.00013
43 | CCC(C)(C)c1ccc(O)cc1 | 0.00054

Same assay, conditions: rat uterine cytosol ER competitive binding, RBA; ChemClass_ERB: Phenols Alkyloxy

Row | Structure (SMILES) | outcome
44 | COc1cc(C=O)ccc1O | inactive

Same assay, conditions: rat uterine cytosol ER competitive binding, RBA; ChemClass_ERB: Phenols Alkyloxy; stronger effect = higher value

Row | Structure (SMILES) | relative binding affinity [%]
45 | Oc1ccc(OCc2ccccc2)cc1 | 0.00036

Same assay, conditions: rat uterine cytosol ER competitive binding, RBA; ChemClass_ERB: Phenols Parabens; stronger effect = higher value

Row | Structure (SMILES) | relative binding affinity [%]
46 | CCCCCCCOC(=O)c1ccc(O)cc1 | 0.00812
47 | O=C(OCc1ccccc1)c1ccc(O)cc1 | 0.00288
48 | CCOC(=O)c1ccc(O)cc1 | 0.0006
49 | COC(=O)c1ccc(O)cc1 | 0.00036

Same assay, conditions: rat uterine cytosol ER competitive binding, RBA; ChemClass_ERB: Phytoestrogens Chalconoids; stronger effect = higher value

Row | Structure (SMILES) | relative binding affinity [%]
50 | O=C(/C=C/c1ccccc1)c1ccc(O)cc1 | 0.0037
51 | O=C(CCc1ccc(O)cc1)c1c(O)cc(O)cc1O | 0.069
52 | O=C(/C=C/c1ccccc1)c1ccccc1 | 0.00151

Same assay, conditions: rat uterine cytosol ER competitive binding, RBA; ChemClass_ERB: Phytoestrogens Flavanones

Row | Structure (SMILES) | outcome
53 | COc1ccc([C@@H]2CC(=O)c3c(O)cc(O)cc3O2)cc1O | inactive
54 | O=C1CC(c2ccccc2)Oc2ccccc21 (centres undefined) | inactive

Same assay, conditions: rat uterine cytosol ER competitive binding, RBA; ChemClass_ERB: Phytoestrogens Flavanones; stronger effect = higher value

Row | Structure (SMILES) | relative binding affinity [%]
55 | O=C1CC(c2ccccc2)Oc2ccc(O)cc21 (centres undefined) | 0.00089

Same assay, conditions: rat uterine cytosol ER competitive binding, RBA; ChemClass_ERB: Phytoestrogens Flavones

Row | Structure (SMILES) | outcome
56 | O=c1cc(-c2ccccc2)oc2cc(O)cc(O)c12 | inactive
57 | COc1ccccc1-c1cc(=O)c2cc(O)ccc2o1 | inactive
58 | O=c1cc(-c2ccccc2)oc2cc(O)ccc12 | inactive

Same assay, conditions: rat uterine cytosol ER competitive binding, RBA; ChemClass_ERB: Phytoestrogens Isoflavones; stronger effect = higher value

Row | Structure (SMILES) | relative binding affinity [%]
59 | O=c1c(-c2ccc(O)c(O)c2)coc2cc(O)ccc12 | 0.00446
60 | COc1ccc(-c2coc3cc(O)cc(O)c3c2=O)cc1 | 0.0043
61 | Oc1ccc([C@H]2COc3cc(O)ccc3C2)cc1 | 0.151
62 | COc1cc(O)c2c(=O)c(-c3ccc(O)cc3)coc2c1 | 0.00181

Same assay, conditions: rat uterine cytosol ER competitive binding, RBA; ChemClass_ERB: Phytoestrogens Mycoestrogens; stronger effect = higher value

Row | Structure (SMILES) | relative binding affinity [%]
63 | C[C@H]1CCC[C@H](O)CCC/C=C/c2cc(O)cc(O)c2C(=O)O1 | 42.7
64 | C[C@H]1CCCC(=O)CCCCCc2cc(O)cc(O)c2C(=O)O1 | 2.09

Same assay, conditions: rat uterine cytosol ER competitive binding, RBA; ChemClass_ERB: Steroids With aromatic A ring; stronger effect = higher value

Row | Structure (SMILES) | relative binding affinity [%]
65 | C[C@]12CC[C@@H]3c4ccccc4CC[C@H]3[C@@H]1CC[C@@H]2O | 0.501
66 | C[C@@]12CCC[C@H]1[C@@H]1CCc3cc(O)ccc3[C@H]1CC2 | 13.8

Same assay, conditions: rat uterine cytosol ER competitive binding, RBA; ChemClass_ERB: Steroids Without aromatic A ring

Row | Structure (SMILES) | outcome
67 | C[C@@H]1C[C@H]2[C@@H]3CCC4=CC(=O)C=C[C@]4(C)[C@@]3(F)[C@@H](O)C[C@]2(C)[C@@]1(O)C(=O)CO | inactive
68 | CC(C)CCC[C@@H](C)[C@H]1CC[C@H]2[C@@H]3CC=C4C[C@@H](O)CC[C@]4(C)[C@H]3CC[C@]12C | inactive
69 | C[C@]12C[C@H](O)[C@H]3[C@@H](CCC4=CC(=O)CC[C@@]43C)[C@@H]1CC[C@@H]2C(=O)CO | inactive
71 | C[C@]12CC[C@H]3[C@@H](CCC4=CC(=O)CC[C@@]43C)[C@@H]1CC[C@@H]2O | inactive
72 | C[C@]12CC[C@H]3[C@@H](CCC4=CC(=O)CC[C@@]43C)[C@@H]1CC[C@H]2O | inactive
73 | CC[C@H](CC[C@@H](C)[C@H]1CC[C@H]2[C@@H]3CC=C4C[C@@H](O)CC[C@]4(C)[C@H]3CC[C@]12C)C(C)C | inactive

Same assay, conditions: rat uterine cytosol ER competitive binding, RBA; ChemClass_ERB: Steroids Without aromatic A ring; stronger effect = higher value

Row | Structure (SMILES) | relative binding affinity [%]
74 | C[C@]12CC[C@@H](O)C[C@@H]1CC[C@@H]1[C@@H]2CC[C@]2(C)[C@@H](O)CC[C@@H]12 | 0.0021
